ChEMBL document CHEMBL1128381, “Hypoxia-selective antitumor agents. 10. bis(nitroimidazoles) and related Bis(nitroheterocycles): development of derivatives with higher rates of metabolic activation under hypoxia and improved aqueous solubility” (J Med Chem, 1995)
Activity calls are given as the source filed them. No cut-off for these calls is given here.

Assays:
[1] = system: CHO-AA8; experiment: Aerobic growth inhibition in Chinese hamster cell line AA8; format: functional, cell-based; conditions: Cricetulus griseus
[2] = system: FME; experiment: Hypersensitivity (HF) factor in human melanoma FME cells [HF= ratio (IC50 in AA8 cells)/(IC50 in FME cells)]; format: functional
[3] = system: UV4; experiment: Hypersensitivity (HF) factor in chinese hamster cell line UV4 [HF= ratio (IC50 in AA8 cells)/(IC50 in UV4 cells)]; format: functional, Cricetulus griseus
[4] = Ratio between aerobic CT10 and hypoxic CT10; format: functional
[5] = system: CHO-AA8; experiment: Concentration x time (uM h) to reduce cell survival to 10% of control values under hypoxic conditions by clonogenic assay; format: ADME, cell-based, Cricetulus griseus; conditions: chinese hamster
[6] = system: EMT6; experiment: Hypersensitivity (HF) factor in murine mammary carcinoma EMT6 cells [HF= ratio (IC50 in AA8 cells)/(IC50 in EMT6)]; format: functional, Mus musculus
[7] = system: UV4; experiment: Evaluated for hypersensitivity (HF) factor in chinese hamster cell line UV4; Evaluated as HF=IC50 for AA8/IC50 for the chinese hamster cell line UV4; f means inactive at solubility limit; format: functional, cell-based; conditions: Cricetulus griseus
[8] = system: FME; experiment: Evaluated for hypersensitivity (HF) factor in human melanoma FME cells as HF=IC50 for AA8/IC50 for the human melanoma FME; f means inactive at the solubility limit; format: functional, cell-based
[9] = system: EMT6; experiment: Evaluated for hypersensitivity (HF) factor in murine mammary carcinoma EMT6 cells as HF=IC50 for AA8/IC50 for the murine mammary carcinoma EMT6; f means inactive at the solubility limit; format: functional, cell-based; conditions: Mus musculus
[10] = system: CHO-AA8; experiment: Concentration x time (uM h) to reduce cell survival to 10% of control values under hypoxic conditions by clonogenic assay. Inactive at the solubility limit; format: ADME, cell-based, Cricetulus griseus; conditions: chinese hamster
[11] = Ratio between aerobic CT10 and hypoxic CT10; No aerobic cytotoxicity at the solubility limit

| Structure (SMILES) | IC50 [1] | HF [2] | HF [3] | selectivity ratio [4] | CT10 [5] | HF [6] | HF [7] | HF [8] | HF [9] | CT10 [10] | selectivity ratio [11] |
| --- | --- | --- | --- | --- | --- | --- | --- | --- | --- | --- | --- |
| Cc1ncc([N+](=O)[O-])n1CCN(C)C(=O)CCCn1ccnc1[N+](=O)[O-] | 4.8 mM | 2.83 | 1.05 | > 18 | 7200 µM·h | 2.09 |  |  |  |  |  |
| CN(CCCn1ccnc1[N+](=O)[O-])CCCn1ccnc1[N+](=O)[O-] | 0.81 mM | 2.55 | 0.97 | 40 | 700 µM·h | 2.6 |  |  |  |  |  |
| O=C(NCCCn1ccnc1[N+](=O)[O-])C(=O)NCCCn1ccnc1[N+](=O)[O-] | > 0.08 mM |  |  |  |  |  | Inactive at solubility limit | Inactive at solubility limit | Inactive at solubility limit | > 700 µM·h |  |
| O=C(CCCn1ccnc1[N+](=O)[O-])NCCn1cnc([N+](=O)[O-])n1 | 6.92 mM | 6.9 | 1.19 |  | 17000 µM·h | 10.7 |  |  |  |  | > 6 |
| Cc1ncc([N+](=O)[O-])n1CCNC(=O)CCCn1ccnc1[N+](=O)[O-] |  | 3.51 | 1.38 | 8 | 12000 µM·h | 4.64 |  |  |  |  |  |
| O=[N+]([O-])c1nccn1CCCNCCCn1ccnc1[N+](=O)[O-] | 1.18 mM | 2.58 | 0.9 | 40 | 2300 µM·h | 5.37 |  |  |  |  |  |
| O=C(CCCn1cnc([N+](=O)[O-])n1)NCCCn1ccnc1[N+](=O)[O-] | 5.28 mM | 5.94 | 1.25 | 3.5 | 17000 µM·h | 8.38 |  |  |  |  |  |
| Cc1ncc([N+](=O)[O-])n1CCNCCCn1ccnc1[N+](=O)[O-] | 4.74 mM | 3.61 | 1.42 | 14 | 2400 µM·h | 4.73 |  |  |  |  |  |
| C[N+](C)(CCCn1ccnc1[N+](=O)[O-])CCCn1ccnc1[N+](=O)[O-].[I-] | 3.65 mM | 4.85 | 0.89 | 10 | 23000 µM·h | 24.2 |  |  |  |  |  |
| Cc1ncc([N+](=O)[O-])n1CCNS(=O)(=O)CCCn1cnc([N+](=O)[O-])n1 | 1.14 mM | 1.19 | <1.35 |  |  | <1.35 |  |  |  |  |  |
| O=C(CCCn1cnc([N+](=O)[O-])n1)NCCn1ccnc1[N+](=O)[O-] | 1.71 mM | >1.9 | 1.17 |  | 15000 µM·h | 1.76 |  |  |  |  | > 1 |
| Cc1ncc([N+](=O)[O-])n1CC(O)Cn1cnc([N+](=O)[O-])n1 (stereo not drawn) | 2.3 mM | 3.63 | 1.16 |  | > 47000 µM·h | 4.85 |  |  |  |  |  |
| COCC(O)Cn1ccnc1[N+](=O)[O-] (stereo not drawn) [MISONIDAZOLE] |  | 1.94 | 1.37 | 18 | 16000 µM·h | 3.6 |  |  |  |  |  |
| Cc1ncc([N+](=O)[O-])n1CCNCCCCn1ccnc1[N+](=O)[O-] | 2 mM | 1.27 | 1.07 | 12 | 2400 µM·h | 2.12 |  |  |  |  |  |
| Cc1ncc([N+](=O)[O-])n1CCN(C)CCCCn1ccnc1[N+](=O)[O-] | 1 mM | 1.54 | 0.98 | 8 | 2000 µM·h | 1.44 |  |  |  |  |  |
| Cc1ncc([N+](=O)[O-])n1CC(O)Cn1ccnc1[N+](=O)[O-] (stereo not drawn) | > 0.8 mM | >1.11 | >0.85 |  | 2400 µM·h |  |  |  | Inactive at solubility limit |  | > 3 |
| Cc1ncc([N+](=O)[O-])n1CCNC(=O)CCCn1cnc([N+](=O)[O-])n1 | 6.42 mM | 4.51 | 1.2 | > 1.3 | 100000 µM·h | 4.94 |  |  |  |  |  |
| O=[N+]([O-])c1nccn1CC(O)CN1CCCCC1 (stereo not drawn) [PIMONIDAZOLE] | 3.03 mM | 4.07 | 1.37 | 40 | 3500 µM·h | 6.3 |  |  |  |  |  |
| Cc1ncc([N+](=O)[O-])n1CCNS(=O)(=O)CCCn1ccnc1[N+](=O)[O-] | > 40.3 mM | >0.91 |  |  |  | >0.84 | Inactive at solubility limit |  |  |  |  |
| Cc1ncc([N+](=O)[O-])n1CCNC(=O)CCC(=O)NCCn1ccnc1[N+](=O)[O-] | 6.6 mM | 3.49 | 1 |  | 47000 µM·h | 7.09 |  |  |  |  | > 6 |
| O=[N+]([O-])c1nccn1CC1OC(n2ccnc2[N+](=O)[O-])C(O)C(O)C1O (stereo not drawn) | 7.4 mM | 2.44 | 0.89 |  | 57000 µM·h | <0.8 |  |  |  |  | > 1.5 |
| O=[N+]([O-])c1nccn1CC(O)CNCCBr (stereo not drawn) |  | 1 | 5.85 | 20 | 400 µM·h | 1.55 |  |  |  |  |  |
